In patent US10251927B2, “Process to enhance the bioactivity of Ashwagandha extracts” (priority 2015, dated 2019):
Where “and” joins values, the source holds several entries; their conditions need not be identical. Equal entries are not always repeated. Where two headings read alike, the source gives them in different places.

Legend:
wistar rats = test: Carrageenan induced paw edema model (Example 16); assay type: in vivo; conditions: Rattus norvegicus, po, 10 mg/kg p.o. single dose, read-out: Percentage inhibition (%) of inflammation
Method: Fourty five wistar rats were divided into nine groups (n=5). Following treatment was given to the rats as single dose: […] The percentage inhibition of edema was calculated for each group with respect to the vehicle received control group of animals.

Albino Wistar rats = test: Anoxia stress tolerance test (Example 16); assay type: in vivo, rat; conditions: 2 mg/kg p.o.
Method: Albino Wistar rats of either sex weighing 150-220 g were selected and divided into 11 groups of six each and following treatment was given after one week of acclimatization:
Animals were treated as shown above for the 3 weeks. At the end of 1st, 2nd and 3rd week i.e. on 7th, 14th and 21st day 1 h after the treatment stress was induced by placing each animal individually in the hermetic vessel of 1 L capacity to record anoxia tolerance time. The time duration of entry of the animal into the hermetic vessel and the appearance of the first convulsion was taken as time of anoxia.

[1] = system: streptozotocin induced diabetic rats; test: Antidiabetic activity of coated extracts in different doses in streptozotocin induced diabetic rats (Example 33); assay type: in vivo, rat; conditions: STZ diabetic rats
Method: Different Ashwagandha extracts with coating in different dosages was evaluated for antidiabetic activity in experimental rats. Male/Female albino wistar rats were maintained as per standard guidelines: housed in polypropylene cages, under 12 hour artificial light and dark cycles at a temperature of 24±2° C., given a standard pellet diet and water ad libitum. The animals were acclimatized to the animal house conditions for a week before beginning the experiment. Diabetes was induced by injecting streptozotocin 35 mg/kg dissolved in 0.1 M citrate buffer of pH 4.5, intra-peritoneally. Five days after induction of diabetes (day 1 of the study), animals were fasted for 12 hours and the fasting blood glucose level (FBG) was estimated for diagnosing diabetic rats. Animals with FBG above 200 mg/dl were considered diabetic. The diabetic animals were randomly divided into 13 groups of 4 animals each.
Fasting blood glucose level and body weight of rats was measured initially and then at Day 7, Day 14, Day 21 and Day 28 of the study.

[2] = system: streptozotocin induced diabetic rats; test: Antidiabetic activity in streptozotocin induced diabetic rats (Example 32); assay type: in vivo, rat; conditions: STZ diabetic rats
Method: Male/Female albino wistar rats were maintained as per standard guidelines: housed in polypropylene cages, under 12 hour artificial light and dark cycles at a temperature of 24±2° C., given a standard pellet diet and water ad libitum. The animals were acclimatized to the animal house conditions for a week before beginning the experiment. Diabetes was induced by injecting streptozotocin 35mg/kg dissolved in 0.1 M citrate buffer of pH 4.5, intra-peritoneally. […] Animals with FBG above 200 mg/dl were considered diabetic. The diabetic animals were randomly divided into 13 groups of six animals each. One normal group was also included comprising of six normal rats.

rats [3] = test: Forced swim test after reserpine, powder/extracts treated at different pH (Example 29); assay type: in vivo, rat; conditions: Reserpine 6 mg/kg i.p.; 10 mg/kg p.o.; vehicle 250, normal control 120
Method: Ashwagandha powder/extract was added to different buffer(pH 1,2,3,5,7 and 7.4) in 1:20 ratio of Ashwagandh powder/extract: buffer. The extract -buffer solution was kept in a waterbath at 37° C. for 2 hrs. The solution was neutralised by adding base or acid solution. The neutralised solution was concentrated and dried.
(§1) The animals were trained for swimming test (15 minutes) as pre-test session and then fasted overnight. To the fasted animals, reserpine (6 mg/kg) was injected i.p. to depress the animals. After 1 hour of reserpine injection, the test samples treated at different pH/standard were fed orally as designated dose. After 1 hour of test sample/standard, the rats were tested using forced swim test and duration of immobility in the 5 minutes test session was recorded. In this test more immobility time indicate that animal is more depressed or stressed.

rats [4] = test: Forced swim test after reserpine injection, enteric and nonenteric coated extracts (Example 14); assay type: in vivo, rat; conditions: Reserpine 6 mg/kg i.p.; 10 mg/kg p.o.; vehicle 250, normal control 120
Method: 92 rats were divided into twenty three groups. Each group had 4 rats. The animals were trained for swimming test (15 minutes) as pre-test session and then fasted overnight. To the fasted animals, reserpine (6 mg/kg) was injected i.p. to depress the animals. After 1 hour of reserpine injection, the test samples/standard was fed orally as designated dose. After 1 hour of test sample/standard, the rats were tested using forced swim test and duration of immobility in the 5 minutes test session was recorded.

rats [5] = test: Forced swim test after reserpine injection, different Ashwagandha extracts (Example 13); assay type: in vivo, rat; conditions: Reserpine 6 mg/kg i.p.; 10 mg/kg p.o.; vehicle 210, normal control 120
Method: 44 rats were divided into eleven groups having 4 rats in each group. The animals were trained for swimming test (15 minutes) as pre-test session and then fasted overnight. To the fasted animals, reserpine (6 mg/kg) was injected i.p. to depress the animals. After 1 hour of reserpine injection, the test samples/standard was fed orally as designated dose.

rats [6] = test: Forced swim test after reserpine, normal (film), enteric and delayed release coating (Example 30); assay type: in vivo, rat; conditions: Reserpine 6 mg/kg i.p.; 10 mg/kg p.o.; test after 2 hour; vehicle 250, normal control 120
Method: as §1, with “60 rats were divided into 15 groups comprising of 4 rats in each group. The” for “The”, “animals. Immediately after” for “animals. After 1 hour of”, “samples with normal (Hydroxy Propyl Cellulose; HPC), enteric (Eudragit) and delayed release (High percentage of Eudragit) coating/standard” for “samples treated at different pH/standard”, “designated doses.” for “designated dose.”, “After 2” for “After 1”

rats [7] = test: Forced swim test after reserpine, different percentage of enteric coating (Example 31); assay type: in vivo, rat; conditions: Reserpine 6 mg/kg i.p.; 10 mg/kg p.o.; test after 2 hour; vehicle 250, normal control 120
Method: as §1, with “Efficacy Study of Different Ashwagandha Extracts Granules with Different Percentage of Enteric Coating. 44 rats were divided into 11 groups comprising of 4 rats in each group. The” for “The”, “animals. Immediately after the” for “animals. After 1 hour of”, “samples (ashwagandha root powder) with” for “samples treated at”, “different percentage of enteric coating/standard” for “different pH/standard”, “After 2” for “After 1”
The test was repeated with different percentage of coated ashwagandha extract containing 3.5% withanolide glycosides and different percentage of coated ashwagandha extract containing 35% and 80% withanolide glycosides.

[8] = before treatment, group 0.5 mg/kg

Compound: COc1ccc2c(c1)c(CC(=O)O)c(C)n2C(=O)c1ccc(Cl)cc1 [Indomethacin]
- inhibition at 10 mg/kg (wistar rats; 0.5 hr): 28%
- inhibition at 10 mg/kg (wistar rats; 1 hr): 65%
- inhibition at 10 mg/kg (wistar rats; 2 hr): 80%
- inhibition at 10 mg/kg (wistar rats; 3 hr): 86%

Compound: CN1C(=O)CN=C(c2ccccc2)c2cc(Cl)ccc21 [Diazepam]
- Duration of anoxia stress tolerance (Albino Wistar rats; First week): 34.50 min
- Duration of anoxia stress tolerance (Albino Wistar rats; Second week): 37.33 min
- Duration of anoxia stress tolerance (Albino Wistar rats; Third week): 37.00 min

Compound: COc1ccc(Cl)cc1C(=O)NCCc1ccc(S(=O)(=O)NC(=O)NC2CCCCC2)cc1 [Glibenclamide]
- Fasting blood glucose (FBG) level after 28 days ([1]; 0.5 mg/kg for 28 days): 125 mg/dL
- Fasting Blood Glucose level ([1]; Day 1 (Initial), standard drug): 423 mg/dL
- Fasting Blood Glucose level ([1]; Day 7, standard drug): 381 mg/dL
- Fasting Blood Glucose level ([1]; Day 14, standard drug): 246 mg/dL
- Fasting Blood Glucose level ([1]; Day 21, standard drug): 197 mg/dL
- Fasting Blood Glucose level ([1]; Day 28, standard drug): 125 mg/dL
- Fasting blood glucose (FBG) level, initial [1, 8]: 423 mg/dL
- Fasting blood glucose (FBG) level after 28 days ([2]; 0.5 mg/kg for 28 days): 124 mg/dL
- Fasting Blood Glucose level ([2]; Day 1 (Initial), standard drug): 422 mg/dL
- Fasting Blood Glucose level ([2]; Day 7, standard drug): 380 mg/dL
- Fasting Blood Glucose level ([2]; Day 14, standard drug): 245 mg/dL
- Fasting Blood Glucose level ([2]; Day 21, standard drug): 196 mg/dL
- Fasting Blood Glucose level ([2]; Day 28, standard drug): 124 mg/dL
- Fasting blood glucose (FBG) level, initial [2, 8]: 422 mg/dL

Compound: CNCCC(Oc1ccc(C(F)(F)F)cc1)c1ccccc1 (centres unmarked) [Fluoxetine]
- Immobility time (rats [3]): 122 s and 120 s
- Immobility time (rats [4]): 122 s
- Immobility time (rats [5]): 122 s
- Immobility time (rats [6]): 120 s
- Immobility time (rats [7]): 120 s
